Results: US9421204B2, “Oligomer modified diaromatic substituted compounds” (priority 2010, dated 2016)
Values joined by “and” are separate entries in the source; they are usually repeats but may differ in a detail not shown here. Equal entries are not always repeated. Where two headings read alike, the source gives them in different places.

Key:
HIV-1RF = assay: Anti-HIV-1 cytoprotection assay in CEM-SS cells; type: cell-based
Procedure: Cell Preparation—CEM-SS cells were passaged in T-75 flasks prior to use in the antiviral assay. On the day preceding the assay, the cells were split 1:2 to assure they were in an exponential growth phase at the time of infection. Total cell and viability quantification was performed using a hemocytometer and Trypan Blue dye exclusion. […] The cells were resuspended at 5×10^4 cells per ml in tissue culture medium and added to the drug containing microtiter plates in a volume of 50 μL.
Virus Preparation—The virus used for the assay was the lymphocyte-tropic virus strain HIV-IRF. The virus was obtained from the NIH AIDS Research and Reference Reagent Program and stock virus pools were produced in CEM-SS cells. A pretitred aliquot of virus was removed from the freezer (−80° C.) and allowed to thaw slowly to room temperature in a biological safety cabinet.
(§1) Plate Format—Each plate contains cell control wells (cells only), virus control wells (cells plus virus), drug toxicity wells (cells plus drug only), drug colorimetric control wells (drug only) as well as experimental wells (drug plus cells plus virus). Samples were tested in triplicate with eleven half-log dilutions per compound.
(§2) Efficacy and Toxicity XTT—Following incubation at 37° C. in a 5% CO2 incubator, the test plates were stained with the tetrazolium dye XTT (2,3-bis(2-methoxy-4-nitro-5-sulfophenyl)-5-[(phenylamino)carbonyl]-2H-tetrazolium hydroxide). XTT-tetrazolium is metabolized by the mitochondrial enzymes of metabolically active cells to a soluble formazan product, allowing rapid quantitative analysis of the inhibition of HIV induced cell killing by anti-HIV test substances. XTT solution was prepared daily as a stock of 1 mg/mL in RPMI1640. Phenazine methosulfate (PMS) solution was prepared at 0.15 mg/mL in PBS and stored in the dark at −20° C. XTT/PMS stock was prepared immediately before use by adding 40 μL of PMS per ml of XTT solution. Fifty microliters of XTT/PMS was added to each well of the plate and the plate was re-incubated for 4 hours at 37° C. Plates were sealed with adhesive plate sealers and shaken gently or inverted several times to mix the soluble fosmazan product and the plate was read spectrophotometrically at 450/650 nm with a Molecular Devices Vmax plate reader.
Anti-HIV-1 Cytopathic Effects Inhibition Assay Evaluations: Eight compounds were evaluated against the RF strain of HIV-1 in CEM-SS cells using a 12 concentration dose response curve.
(§3) Data Analysis—Raw data was collected from the Softmax Pro 4.6 software and imported into a Excel XLFit4 spreadsheet for analysis by four parameter curve fit calculations. Both antiviral activity and toxicity are calculated.

NL4-3Y181C = assay: Anti-HIV cytoprotection assay, drug resistant NL4-3 Y181C; type: cell-based; settings: HIV-1 strain NL4-3Y181C; for EC50: CEM-SS cells
Procedure: (§4) Cells were prepared as described above. Virus Preparation—The wild type NL4-3 and drug resistant A17 viruses were obtained from the NIH AIDS Research and Reference Reagent Program and stock virus pools were produced in CEM-SS cells. Amino acid substitutes of L100I, Y181C and P23L were introduced by site-directed mutagenesis into pN L4-3 and stock virus pools were produced in CEM-SS cells. A pretitered aliquot of virus was removed from the freezer (−80° C.) and allowed to thaw slowly to room temperature in a biological safety cabinet. Virus was re-suspended and diluted into tissue culture medium such that the amount of virus added to each well in a volume of 50 μL was the amount determined to yield 85 to 95% cell killing at 6 days post-infection.
as §2, with “Plate Format—Each plate contains cell control wells (cells only), virus control wells (cells plus virus), drug toxicity wells (cells plus drug only), drug colorimetric control wells (drug only) as well as experimental wells (drug plus cells plus virus). Samples were tested in triplicate with eleven half-log dilutions per compound. Efficacy” for “Efficacy”, “XTT-tetrazolium was” for “XTT-tetrazolium is”, “C. XTTIPMS” for “C. XTT/PMS”, “soluble formazan” for “soluble fosmazan”
as §3

[1] = Toxicity XTT in CEM-SS cells (cytoprotection assay); type: cell-based; settings: human, CEM-SS cells, XTT; read-out: CEM-SS TC50
Procedure: Cell Preparation—CEM-SS cells were passaged in T-75 flasks prior to use in the antiviral assay. On the day preceding the assay, the cells were split 1:2 to assure they were in an exponential growth phase at the time of infection. Total cell and viability quantification was performed using a hemocytometer and Trypan Blue dye exclusion. Cell viability was greater than 95% for the cells to be utilized in the assay. The cells were resuspended at 5×10^4 cells per ml in tissue culture medium and added to the drug containing microtiter plates in a volume of 50 μL.
as §1, §2, §3

[2] = Toxicity XTT in CEM-SS cells (drug resistant strain assay); type: cell-based; settings: human, CEM-SS cells, read-out: TC50 (the source's name)
Procedure: as §4
as §2, with “Plate Format—Each plate contains cell control wells (cells only), virus control wells (cells plus virus), drug toxicity wells (cells plus drug only), drug colorimetric control wells (drug only) as well as experimental wells (drug plus cells plus virus). Samples were tested in triplicate with eleven half-log dilutions per compound. Efficacy” for “Efficacy”, “XTT-tetrazolium was” for “XTT-tetrazolium is”, “C. XTTIPMS” for “C. XTT/PMS”, “soluble formazan” for “soluble fosmazan”
as §3

NL4-3L100I = assay: Anti-HIV cytoprotection assay, drug resistant NL4-3 L100I; type: cell-based; settings: HIV-1 strain NL4-3L100I, CEM-SS cells
Procedure: as §4
as §2, with “Plate Format—Each plate contains cell control wells (cells only), virus control wells (cells plus virus), drug toxicity wells (cells plus drug only), drug colorimetric control wells (drug only) as well as experimental wells (drug plus cells plus virus). Samples were tested in triplicate with eleven half-log dilutions per compound. Efficacy” for “Efficacy”, “XTT-tetrazolium was” for “XTT-tetrazolium is”, “C. XTTIPMS” for “C. XTT/PMS”, “soluble formazan” for “soluble fosmazan”
as §3

NL4-3P236L = assay: Anti-HIV cytoprotection assay, drug resistant NL4-3 P236L; type: cell-based; settings: HIV-1 strain NL4-3P236L; for EC50: CEM-SS cells
Procedure: as §4
as §2, with “Plate Format—Each plate contains cell control wells (cells only), virus control wells (cells plus virus), drug toxicity wells (cells plus drug only), drug colorimetric control wells (drug only) as well as experimental wells (drug plus cells plus virus). Samples were tested in triplicate with eleven half-log dilutions per compound. Efficacy” for “Efficacy”, “XTT-tetrazolium was” for “XTT-tetrazolium is”, “C. XTTIPMS” for “C. XTT/PMS”, “soluble formazan” for “soluble fosmazan”
as §3

A17K103N/Y181C = assay: Anti-HIV cytoprotection assay, drug resistant A17; type: cell-based; settings: HIV-1 strain A17K103N/Y181C, CEM-SS cells
Procedure: as §4, with “cabinet.” for “cabinet. Virus was re-suspended and diluted into tissue culture medium such that the amount of virus added to each well in a volume of 50 μL was the amount determined to yield 85 to 95% cell killing at 6 days post-infection.”
as §2, with “Plate Format—Each plate contains cell control wells (cells only), virus control wells (cells plus virus), drug toxicity wells (cells plus drug only), drug colorimetric control wells (drug only) as well as experimental wells (drug plus cells plus virus). Samples were tested in triplicate with eleven half-log dilutions per compound. Efficacy” for “Efficacy”, “XTT-tetrazolium was” for “XTT-tetrazolium is”, “C. XTTIPMS” for “C. XTT/PMS”, “soluble formazan” for “soluble fosmazan”
as §3

CEM-SS cells = assay: Toxicity XTT in CEM-SS cells (drug resistant strain assay); type: cell-based; settings: read-out: TC50 (the source's name)
Procedure: as §4
as §2, with “Plate Format—Each plate contains cell control wells (cells only), virus control wells (cells plus virus), drug toxicity wells (cells plus drug only), drug colorimetric control wells (drug only) as well as experimental wells (drug plus cells plus virus). Samples were tested in triplicate with eleven half-log dilutions per compound. Efficacy” for “Efficacy”, “XTT-tetrazolium was” for “XTT-tetrazolium is”, “C. XTTIPMS” for “C. XTT/PMS”, “soluble formazan” for “soluble fosmazan”
as §3

NL4-3 = assay: Anti-HIV cytoprotection assay, wild type NL4-3; type: cell-based, HIV-1; settings: for EC50: HIV-1 strain NL4-3, CEM-SS cells, read-out: EC50
Procedure: as §4, with “cabinet.” for “cabinet. Virus was re-suspended and diluted into tissue culture medium such that the amount of virus added to each well in a volume of 50 μL was the amount determined to yield 85 to 95% cell killing at 6 days post-infection.”
as §2, with “Plate Format—Each plate contains cell control wells (cells only), virus control wells (cells plus virus), drug toxicity wells (cells plus drug only), drug colorimetric control wells (drug only) as well as experimental wells (drug plus cells plus virus). Samples were tested in triplicate with eleven half-log dilutions per compound. Efficacy” for “Efficacy”, “XTT-tetrazolium was” for “XTT-tetrazolium is”, “C. XTTIPMS” for “C. XTT/PMS”, “soluble formazan” for “soluble fosmazan”
as §3

[3] = Human immunodeficiency virus 1, CEM-SS
[4] = run with HIV-1 strain A17K103N/Y181C
[5] = run with HIV-1 strain NL4-3L100I
[6] = run with HIV-1 strain NL4-3P236L
[7] = run with HIV-1 strain NL4-3Y181C

Cc1cn([C@H]2C[C@H](N=[N+]=[N-])[C@@H](CO)O2)c(=O)[nH]c1=O [AZT, reference compound]
EC50 (HIV-1RF; CEM-SS cells, XTT, read-out: CEM-SS/HIV-1RF EC50): 10 nM
EC50 (HIV-1RF; Human immunodeficiency virus 1, CEM-SS, CEM-SS cells, XTT, read-out: CEM-SS/HIV-1RF EC50): 6 nM
EC50 (HIV-1RF; Human immunodeficiency virus 1, CEM-SS, RF strain of HIV-1 in CEM-SS cells, control compound, read-out: EC50): 6 nM
EC50 (NL4-3Y181C): 1 nM
EC50 (NL4-3Y181C; [3]): 2 nM
CC50 [1]: > 1000 nM
CC50 [2, 4]: > 500 nM
EC50 (NL4-3L100I): 6 nM
EC50 (NL4-3L100I; [3]): 3 nM
TI (NL4-3P236L): >71.4 and >50.0
EC50 (A17K103N/Y181C; [3]): 3 nM

CC(C)Nc1cccnc1N1CCN(C(=O)c2cc3cc(NS(C)(=O)=O)ccc3[nH]2)CC1 [Delavirdine, N-[2-({4-[3-(propan-2-ylamino)pyridin-2-yl]piperazin-1-yl}carbonyl)-1H-indol-5-yl]methanesulfonamide, reference compound]
TI (NL4-3Y181C): >1.7
EC50 (NL4-3Y181C): 580 nM
EC50 (NL4-3Y181C; [3]): > 500 nM
CC50 [2, 4]: > 500 nM
CC50 ([2]; run with HIV-1 strain NL4-3): > 500 nM
CC50 [2, 5]: > 500 nM
CC50 [2, 6]: > 500 nM
CC50 [2, 7]: > 500 nM
CC50 (CEM-SS cells; [4]): > 1000 nM
CC50 (CEM-SS cells; run with HIV-1 strain NL4-3): > 1000 nM
CC50 (CEM-SS cells; [5]): > 1000 nM
CC50 (CEM-SS cells; [6]): > 1000 nM
CC50 (CEM-SS cells; [7]): > 1000 nM
TI (NL4-3; HIV-1 strain NL4-3): >100.0
EC50 (NL4-3): 10 nM
EC50 (NL4-3; Human immunodeficiency virus 1, NL43, CEM-SS): 5 nM
TI (NL4-3P236L): >2.0
EC50 (NL4-3P236L): 500 nM
EC50 (NL4-3P236L; [3]): > 500 nM
EC50 (A17K103N/Y181C): > 1000 nM
EC50 (A17K103N/Y181C; [3]): > 500 nM
